Consider two substances from US20250282795A1, “EGFR Inhibitors in cancer treatment” (Celyn Therapeutics, Inc., priority 2022, published 2025).

Like-named read-outs stand apart in the source and are kept apart here.

The substance “(19E)-28-[(3-Fluoro-2-methoxyphenyl)amino]-3,22-dioxa-6,11,15-triazapentacyclo[21.3.1^10,13.0^4,9.0^12,17]octacosa-1(27),4,6,8,10(28),12,19,23,25-nonaen-14-one” displayed a ring closure, yield after HPLC (rcm bond, 16-membered ring, Hoveyda-Grubbs II (10 mol%), DCM, 3.6 mM) of 20%.

On to “29-(3-Fluoro-2-methoxyanilino)-18,21-dioxa-1,6,10,15,24-pentaazapentacyclo[22.2.2.1^8,110^4,9.0^12,17]nonacosa-8,11(29),12(17),13,15-pentaene-2,7-dione”, for which the ring closure, yield after HPLC (amide bond, 18-membered ring, EDCI, DMF, 43.0 mM, 25.0 °C) was 16%.
